From PubChem BioAssay AID179 (DTP/NCI, 2004)
Values joined by “and” are separate entries in the source; they are usually repeats but may differ in a detail not shown here. Equal entries are not always repeated. Active and inactive are the calls of the source.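 The calls were made as follows: active = compounds giving half or more protection of infected cells from virus-caused growth loss, again on retest; inactive = the rest.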 *1 amine or outer side, *2 acyl side, *3 side chain or, on linkers, in order; H or OH if unused. Where a SMILES comes first, the peptide text is derived from it. Bridges are numbered along the chain shown (N, C = ends). [ ]: non-standard residue; d: D form. The star is where a group is joined. X22 = CC(C)C(C)C(C(=O)[*:2])N(C)[*:1]; Picolinoyl(3-OH) = O=C(c1ncccc1O)*; NMePhg = CN[CH](C(=O)O)c1ccccc1; Hyp = O=C(O)[CH]1C[CH](O)CN1; Ac5c = NC1(C(=O)O)CCCC1; Boc = CC(C)(C)OC(=O)*; Sar = CNCC(=O)O; tBu = CC(C)(C)*

System: CEM cells HIV-1 protection, formazan growth assay
Assay: NCI AIDS Antiviral Assay
Conditions: for IC50: measured here: growth of uninfected CEM cells
Procedure: The ability of compounds to protect human CEM cells from HIV-1 infection is measured as a screen for new compounds capable of inhibiting the HIV virus. Five concentrations of drug were tested on uninfected and infected cells and cell growth was measured using a soluble formazan assay. […] Compounds that provided at least 50% protection were retested. Compounds that provided at least 50% protection on retest were listed as moderately active. Compounds that reproducibly provided 100% protection were listed as confirmed active. […] Note that the inability to provide protection could be due to toxicity.

| SMILES | EC50 [µM] | IC50 | outcome |
| --- | --- | --- | --- |
| COc1cc(C(c2ccc3c(c2)OCO3)N2C(=O)CCC2C(=O)O)cc(OC)c1OC (stereo not drawn) | > 200 | > 200 µM |  |
| O=S(=O)(O)C(I)S(=O)(=O)O | > 200 | > 200 µM |  |
| NC(CS)=NC1CCCCC1 | > 200 | 107 µM |  |
| Nc1ccc2ccc(N3CCNCC3)nc2n1 | > 200 | 46.8 µM |  |
| COc1ccccc1CNCCCCCNCCCCCCCCCCNCCCCCNCc1ccccc1OC | > 200 | 28.8 µM |  |
| COc1c(C)cc(Cc2cc(C)c(OC)c(Br)c2)cc1Br | > 200 | 91.2 µM |  |
| COC(=O)C1C(=O)C(C(=O)OC)C23C(C)CCC12C(C(=O)OC)C(=O)C3C(=O)OC (stereo not drawn) | > 46.8 | > 46.8 µM |  |
| O=c1cc2c(n[nH]1)CCCC2 | > 708 | > 708 µM |  |
| CC(C)(c1ccc(OP2(=O)OCC3(CC=CCC3)CO2)cc1)c1ccc(OP2(=O)OCC3(CC=CCC3)CO2)cc1 (stereo not drawn) | > 200 | 22.9 µM |  |
| CC(=O)c1cccc(NC(=O)/C(=N\NC(C)(C)C)c2c(O)c3ccccc3oc2=O)c1 | > 589 | 257 µM |  |
| CC(C)=CCC/C(C)=C/CCC(C)/C=C/C(=O)NC[C@@H]1CC[N@+]2(C)CCCC[C@H]12 (stereo partly drawn) | > 501 | 23.4 µM |  |
| O=S1(=O)OC2(CCCCC2)c2ccccc21 | > 209 | > 209 µM |  |
| COC(=O)CCNc1c2ccccc2nc2cccc([N+](=O)[O-])c12 | > 0.2 | 0.0794 µM |  |
| COc1ccc2c(c1)-c1c(c3cc(OC)ccc3n1CCCN(C)C)CC2 | > 200 | 5.5 µM |  |
| Cc1c(COC(=O)NC(C)C)c(COC(=O)NC(C)C)c2n1CSC2 | > 51.3 | 2.4 µM |  |
| O=C1[C@@H]2C(c3ccccc3[N+](=O)[O-])=[N+](c3ccccc3)O[C@@H]2C(=O)N1c1ccc(Cc2ccc(N3C(=O)[C@H]4C(c5ccccc5[N+](=O)[O-])=[N+](c5ccccc5)O[C@H]4C3=O)cc2)cc1 | > 8.51 | > 8.51 µM |  |
| Cc1cc(N(CCC#N)CCC#N)ccc1/C=C(\NC(=O)/C=C/c1ccccc1)NC(=O)Nc1ccc(Cl)cc1 |  |  | inactive |
| O=C1CC(c2ccc(O)c(O)c2)c2cc(O)c3c(c2O1)C[C@@H](O)[C@@H](c1ccc(O)c(O)c1)O3 (stereo partly drawn) | > 200 | 15.8 µM |  |
| COC(=O)[C@@H](NC(=O)N(CCC#N)CCCN(C(=O)N[C@H](Cc1ccccc1)C(=O)OC)c1ccccc1)C(C)C | > 200 | 87.1 µM |  |
| C1CCC2(CC1)SSC1(CCCCC1)S2 | > 200 | 110 µM |  |
| COC(=O)c1c(C)c2c(c(C)c1C(=O)OC)-c1c(C)ccc3ccc(C)c-2c13 | > 100 | 3.72 µM |  |
| NCCCCNCCCNC(=O)c1nc(-c2csc(CCN)n2)sc1Cl | > 200 | > 200 µM |  |
| O=C1c2ccccc2C(=O)c2c(SSc3cccc4c3C(=O)c3ccccc3C4=O)cccc21 | > 200 | > 200 µM |  |
| c1ccc2c3nnc(c2c1)SCCSCCSc1nnc(c2ccccc12)SCCSCCS3 | > 200 | > 200 µM |  |
| COc1nc(=O)n(C2CC(N=[N+]=[N-])C(CO)O2)cc1C (stereo not drawn) | 17.4 | > 200 µM |  |
| CC(C)CC1NC(=O)C(NC(=O)c2ncccc2O)C(C)OC(=O)C(c2ccccc2)N(C)C(=O)C(C)NC(=O)C(C(C)C(C)C)N(C)C(=O)CN(C)C(=O)C2CC(O)CN2C1=O (stereo not drawn) ({Picolinoyl(3-OH)}-TL[Hyp][Sar][X22]A[NMePhg]; ester 1-C; configuration not given here) |  |  | inactive |

| SMILES | EC50 [µM] | IC50 | outcome |
| --- | --- | --- | --- |
| O=C(O)/C=C/C=C/c1ccccc1 | > 200 | > 200 µM |  |
| c1ccc2c(c1)SCCc1nncn1-2 | > 437 | > 437 µM |  |
| O=C(NC(OCc1ccccc1)(C(F)(F)F)C(F)(F)F)OCc1ccccc1 | > 200 | 32.4 µM |  |
| COc1ccc(/C=C2\CN(C)Cc3c2nc(N)nc3-c2ccc(OC)cc2)cc1 | > 18.6 | > 18.6 µM |  |
| NC(=O)C(=CNC(=S)N=Nc1c(O)[nH]c2ccccc12)C(N)=O | > 200 | 166 µM |  |
| CCOc1c(OC)cc(-c2nc3n(n2)C(=O)C(CC)S3)cc1OC (stereo not drawn) | > 200 | > 200 µM |  |
| O=C(CCc1ccc(O)cc1)NCCc1ccc(O)cc1 | 38.9 | 166 µM |  |
| CC1(C)OC2C(O1)[C@H]1OC(C(Cl)(Cl)Cl)=N[C@H]1C(I)[C@H]2N1C(=O)c2ccccc2C1=O (stereo partly drawn) | > 200 | 110 µM |  |
| CC(C)(C)C(=O)/C=C(\OB(F)F)C(C)(C)C | > 200 | > 200 µM |  |
| CCCC[n+]1ccn(-c2nc3ccccc3n2C)c1 |  |  | inactive |
| CC(OC(C)(C)C)C(NC(=O)C(CCCCNC(=O)OC(C)(C)C)NC(=O)C(Cc1c[nH]c2ccccc12)NC(=O)C(N)Cc1ccccc1)C(=O)NC(Cc1ccccc1)C(=O)NC1(C(=O)O)CCCC1 (stereo not drawn) (H-FWK(Boc)T(tBu)F[Ac5c]-OH; configuration not given here) | 97.7 | > 100 µM |  |
| Cc1cc(S(=O)(=O)N=C2Nc3cccc4cccc(c34)N2)c(S)cc1Cl | 132 | 174 µM |  |
| N#CC(=C1CCN(CCCC(=O)c2ccc(F)cc2)CC1)c1ccccc1 | > 200 | > 200 µM |  |
| CC(=O)C1(N=Nc2ccc(S(=O)(=O)Nc3onc(C)c3C)cc2)CCOC1=O (stereo not drawn) | > 200 | > 200 µM |  |
| COc1ccc2ccccc2c1C1=NC(C)(C)CO1 | > 977 | 479 µM |  |
| COCC(O)COn1c(=O)c(C#N)[n+]([O-])c2ccccc21 (stereo not drawn) | > 200 | 30.2 µM |  |
| O=[N+]([O-])c1ccc(C[N+]23CCN(CC2)CC3)cc1 |  |  | inactive |
| CCN(CC)CCCC(C)Nc1ccnc2cc(F)ccc12 (stereo not drawn) (tested in a mixture with another compound) | > 200 | > 200 µM |  |
| O=C(CSc1nc2[nH]ncc2c(=O)[nH]1)c1ccc(Cl)cc1 | > 200 | > 200 µM |  |
| O=S(=O)(Sc1ccccc1)c1ccccc1 | > 81.3 | 13.8 µM |  |
| COC(=O)C1CC2(C)C=CC1N(C(=O)OCc1ccccc1)C2 (stereo not drawn) | 63.1 | 102 µM |  |
| CC(C)Cc1nc(-c2cc3ccccc3[nH]2)c(CC(C)C)nc1-c1cc2ccccc2[nH]1 | > 4.68 | > 4.68 µM |  |
| CCCCOP(=O)(OCCCC)OP(=O)(OCCCC)OCCCC | > 200 | > 200 µM |  |
| O=C(c1ccc([N+](=O)[O-])cc1[N+](=O)[O-])N(/N=C/C=C/c1ccccc1)c1nnc(-c2ccccc2)c(-c2ccccc2)n1 | > 9.12 | > 9.12 µM |  |
| CS(=O)(=O)OC1C(COC(=O)c2ccccc2)OC2C1Oc1nc(=O)ccn12 (stereo not drawn) | > 200 | > 200 µM |  |
| COc1ccccc1N=Nc1c(-c2ccccc2)nn(C(=O)CC(=O)Nc2cccc(C)c2)c1-c1ccccc1 | > 35.5 | 20.9 µM |  |

| SMILES | EC50 [µM] | IC50 | outcome |
| --- | --- | --- | --- |
| O=C1NC(CSSCC2NC(=O)N(c3ccccc3)C2=O)C(=O)N1c1ccccc1 (stereo not drawn) | > 200 | 1.12 µM |  |
| CCCCCCCCCCCCCCCCOC1OC(CSSCC2OC(OCCCCCCCCCCCCCCCC)C(O)C(O)C2O)C(O)C(O)C1O (stereo not drawn) | 5.25 | 6.03 µM |  |
| Cc1cc2c(C(C)C)c(O)c(O)c(C=O)c2c(O)c1-c1c(C)cc2c(C(C)C)c(O)c(O)c(C=Nc3ccc(Cc4ccc(N)cc4)cc3)c2c1O | 5.5 | 44.7 µM |  |
| COc1ccccc1NC(=O)CC(=O)n1nc(-c2ccccc2)c(N=Nc2ccccc2[N+](=O)[O-])c1-c1ccccc1 | > 33.9 | > 33.9 µM |  |
| CCOC(=O)CCC[P+](c1ccccc1)(c1ccccc1)c1ccccc1 | > 200 | 22.4 µM and 7.76 µM |  |
| CCOC(=O)/C=C(/C)Nc1nc2c(c(C(=O)OC)c1C#N)CCCC2 | > 200 | > 200 µM |  |
| CCCc1noc(C(F)(F)Sc2ncccn2)n1 | > 200 | > 200 µM |  |
| COC(=O)Nc1cn2nc(N)sc2n1 | > 200 | > 200 µM |  |
| CCCN(CCC)C(=O)C(=O)c1c(N)[nH]n(-c2ccccc2)c1=O |  |  | inactive |
| CC(=O)N1C(=O)C(=O)c2ccccc21 | > 200 | > 200 µM |  |
| CC1=N/C(=C\c2cccc3ccccc23)C(=O)O1 | > 11.5 | > 11.5 µM |  |
| CS(=O)(=O)SCc1ccc([N+](=O)[O-])cc1 | > 145 | 20.4 µM |  |
| C=CCC12CCC(=O)[C@@]1(C)CC=C(O)C2=O (stereo partly drawn) |  |  | inactive |
| C/C(CC(O)(/C=N/O)c1ccccc1)=N/O (stereo not drawn) | > 200 | > 200 µM |  |
| O=C(Nc1ccc(Cl)cc1)c1cc(S(=O)(=O)N2CCNNC2=O)c(S)cc1Cl | 9.77 | 129 µM |  |
| CSc1nnc(SC)nn1 | > 200 | 0.851 µM |  |
| N#CC[C@@H](O)COc1ccccc1 | > 200 | > 200 µM |  |
| CC1(O)CC2(O)C=CC3=C(C(=O)c4cccc(O)c4C3=O)C2(O)C(=O)C1O (stereo not drawn) | > 676 | 0.339 µM |  |
| O=P(O)(O)CN1CCNCCN(CP(=O)(O)O)CC1 | > 100 | 70.8 µM |  |
| O=C(NC(=Nc1ccccc1)SCSC(=Nc1ccccc1)NC(=O)c1ccco1)c1ccco1 | > 14.5 | > 14.5 µM |  |
| CC(C)CCCC(C)C1CCC2C3CC[C@H]4C[C@@H](CCC=C(c5cc(Cl)c(OCc6cccc(B7OC(C)(C)C(C)(C)O7)c6)c(C(=O)OCc6cccc(B7OC(C)(C)C(C)(C)O7)c6)c5)c5cc(Cl)c(OCc6cccc(B7OC(C)(C)C(C)(C)O7)c6)c(C(=O)OCc6cccc(B7OC(C)(C)C(C)(C)O7)c6)c5)CC[C@]4(C)C3CC[C@]12C (stereo partly drawn) | > 50.1 | > 50.1 µM |  |
| CCC(c1ccccc1)c1noc(CCN(CC)CC)n1 (stereo not drawn) | > 200 | 33.9 µM |  |
| O=C(CC/C(CC(=O)c1ccc(Br)cc1)=N\O)Nc1ccc(Cl)c(Cl)c1 | > 79.4 | 16.2 µM |  |
| COC(=O)C1CCCN1C(=O)C(Cc1cn(S(=O)(=O)c2ccc(C)cc2)cn1)NC(=O)OC(C)(C)C (stereo not drawn) | > 200 | > 200 µM |  |
| CC(CC(=O)O)CC(=O)OC[C@]12CC[C@@H](C(C)C)[C@@H]1[C@H]1CC[C@@H]3[C@@]4(C)CC[C@H](OC(=O)CC(C)CC(=O)O)C(C)(C)[C@@H]4CC[C@@]3(C)[C@]1(C)CC2 (stereo partly drawn) | > 200 | 16.6 µM |  |
